Reference: patent US8278359B2, “Compositions containing amines and use thereof to treat acne or reduce the appearance of oil or pores on the skin” (Johnson & Johnson Consumer Companies, Inc., priority 2005, dated 2012)

Tests used:
[1] = test system: TNF (tissue necrosis factor-alpha); experiment: PHA-stimulated peripheral blood lymphocyte cytokine release: TNF; type: cell-based; settings: Homo sapiens, 48 h, read-out: TNF % inh.
From the text: (§1) The ability of various amines to affect the inflammatory responses was illustrated by its ability to reduce the production of cytokines by human lymphocytes stimulated with the T-cell receptor (TCR) activating agent phytohaemagglutinin (PHA) in the following assay.
(§2) Human leukocytes were collected from a healthy adult […] via leukopheresis, and adjusted to a density Of 1×10^6 cells/mL in serum free lymphocyte growth medium (ExVivo-15, Biowhittaker, Walkersville, Md.). PBLs were stimulated with 10 μg/mL PHA in the presence or absence of test samples following published methods (Hamamoto Y., et al. Exp Dermatol 2:231-235, 1993). The following compounds were evaluated N,N,N′,N′-Tetrakis(2-hydroxypropyl)ethylenediamine (THPED, available from BASF under the tradename “Quadrol” or “Neutrol”), N,N,N,N-Tetramethylethylenediamine (TEMED, available from Pfaltz & Bauer Chemicals (Waterbury, Conn.)), and Diethylenetriamine (available from Sigma-Aldrich) Following a 48 hour incubation at 37° C. with 5% CO2, the supernatant was removed and evaluated for cytokine content using commercially available multiplex cytokine detection kit.

macrophages = settings: Bhide M V et al., Immunopharmacol. 1985; cited from earlier work
B16 cells = experiment: Induction of pigmentation in vitro, DOPA staining; type: cell-based, murine; settings: pH 7.2, 48 hours
Method: THPED was tested for its effect on pigmentation, using melanocytes, DOPA staining and computerized image analysis. THPED was obtained from BASF (Florham Park, N.J.). THPED was dissolved in culture medium and pH was adjusted to neutral (pH 7.2). THPED was assayed at concentrations ranging from 0.05-0.01%.
B16 cells (a murine melanoma cell line) were obtained from American Type Culture Collection (Manassas, Va.). Cells were cultured in Dulbecco's Modified Eagle Medium (DMEM) containing 10% fetal bovine serum (FBS), 4.5 mg/ml glucose, 2 mM L-glutamine, sodium pyruvate, without phenol red (Invitrogen, Carlsbad, Calif.). B16 cells were plated on 12 well tissue culture plates (Corning Costar, San Diego, Calif.), at 40,000 cells per well in the above culture media. Cells were allowed to grow overnight and then treated with various concentrations of THPED at pH 7.2 for total 48 hours. Fresh media containing the experimental treatments were changed once daily.
At the end of the treatment, the cells were washed for 5 minutes, twice, in phosphate-buffered saline (PBS, from Life Technologies, Gaithersburg, Md.), then briefly fixed in 10% buffered formalin (from Sigma St. Louis, Mo.) for 10 minutes, washed three times with PBS and stained with 0.1% L-3,4-Dihydroxyphenylalanine (DOPA, from Sigma, St. Louis, Mo.) in PBS for 2-3 hours at 37° C., followed by three PBS washes. DOPA is a substrate for tyrosinase; therefore an increase in staining represents increased tyrosinase activity and pigment production. Images of DOPA-stained cells were taken using a Leica DMIL microscope (Bannockburn, Ill.) and an OPTRONICS DEI-750 digital camera (Goleta, Calif.). All images were obtained and analyzed with Image Pro Plus 4.0 software (Media Cybernetics, Silver Spring, Md.).
The pigment change was evaluated using the scale defined in Table XII.

tyrosinase [2] = experiment: Tyrosinase protein levels in B16 cells (Western blot, normalized to β-Actin); type: cell-based, murine; settings: pH 7.2, 48 hours, PBS treated control = 1
Method: THPED was also tested for its ability to induce tyrosinase protein levels in B16 cells. B16 cells were treated with THPED at different concentrations at pH 7.2 for 48 hours and cells were then lysed in 250 μl of PBS containing 1% Triton X-100. B16 cell lysates containing 3.7 μg of protein (for tyrosinase protein analysis) and 1.2 μg of protein (for β-Actin protein analysis) were electrophoresed on 4-20% Tris-Glycine SDS PAGE minigels (Invitrogen, Carlsbad, Calif.), transferred onto PVDF membrane (Bio Rad, Hercules, Calif.), and probed with antibodies for Tyrosinase (1:200 in PBS+0.2% Tween 20+5% BSA, obtained from Santa Cruz Biotechnology, Inc., Santa Cruz, Calif.) and β-Actin (1:2000 in PBS+0.2% Tween 20+5% BSA, obtained from Sigma, St. Louis, Mo.). Protein expression of tyrosinase and β-Actin were analyzed using ECL reagent and Hyperfilm ECL obtained from Amersham (Piscataway, N.J.). The film was developed using a Konica SRX-101A Processor (East Orange, N.J.).
Tyrosinase protein level in untreated B16 cells was normalized to 1.

tyrosinase [3] = experiment: Tyrosinase activity in lysates of treated B16 cells (DOPA, absorbance 490 nm); type: cell-based, murine; settings: pH 7.2, B16 cells 48 hours, activity at 3-hours, normalized for total protein
Method: THPED was also tested for its ability to induce tyrosinase activity in B16 cells by spectroscopic measuring of the final product, melanin. B16 cells were treated with THPED at different concentrations at pH 7.2 for 48 hours and cells were then lysed in 250 μl of PBS containing 1% Triton X-100 (Sigma, St. Louis, Mo.). The lysates were collected and centrifuged at 14,000 rpm for 5 minutes at 4° C. to pellet any insoluble material. Lysates (100 μl) were transferred to a 96 well assay plate (Corning Costar, San Diego, Calif.) and mixed with 100 μl of 0.1% (w/v) DOPA in PBS. The absorbance at 490 nm was then monitored from 0 to 12 hours using a VersaMax Plate Spectrophotometer (Molecular Devices, Sunnyvale, Calif.) and SoftMax Pro analytical software (Molecular Devices, Sunnyvale, Calif.). The tyrosinase activities were normalized for total protein using the BioRad Dc Protein Assay (Bio Rad, Hercules, Calif.).

[4] = test system: GM-CSF (granulocyte macrophage stimulating factor); experiment: PHA-stimulated peripheral blood lymphocyte cytokine release: GM-CSF; type: cell-based; settings: Homo sapiens, 48 h, read-out: GMCSF % inh.
From the text: as §1, §2

CC(O)CN(CCN(CC(C)O)CC(C)O)CC(C)O (centres unmarked) [THPED, N,N,N′,N′-Tetrakis(2-hydroxypropyl)ethylenediamine]
inhibition at 10 µg/mL [1]: 13.3% | inhibition at 100 µg/mL [1]: 46.1% | effect on macrophages in culture (macrophages): increased macrophage activation | Pigmentation score (B16 cells; 0.01% (w/v)): 1 | Pigmentation score (B16 cells; 0.025% (w/v)): 2 | Pigmentation score (B16 cells; 0.05% (w/v)): 4 | Relative increase in tyrosinase protein (tyrosinase [2]; 0.01%): 3 fold | Relative increase in tyrosinase protein (tyrosinase [2]; 0.025%): 25 fold | Relative increase in tyrosinase protein (tyrosinase [2]; 0.05%): 36 fold | % tyrosinase activity relative to untreated control (tyrosinase [3]; 0.01%): 104.15% | % tyrosinase activity relative to untreated control (tyrosinase [3]; 0.025%): 167.39% | % tyrosinase activity relative to untreated control (tyrosinase [3]; 0.05%): 201.90% | inhibition at 10 µg/mL [4]: 10.3% | inhibition at 100 µg/mL [4]: 15.8%
